One assay deals with T1, histamine H1 -receptor (Cavia porcellus, UniProt P31389).
T1 construct: an isolated portion of the guinea pig ileum is secured under tension; from tissue; host or cells: isolated guinea pig ileum
The assay is described as follows: guinea pig ileum test (histamine H1-antagonist activity in vitro). Conditions: isolated guinea pig ileum, histamine-induced contraction, 8 min contact, 30° C., Schild plot; read-out: pA2 value (converted). Format: cell-based. As for the experimental part: In this test an isolated portion of the guinea pig ileum is secured under tension (500 mg) between an anchorage and a transducer in a 10 ml tissue bath and immersed in magnesium free Tyrode solution with constant aeration at a temperature of 30° C. The output from the transducer is amplified. The amplified output is in turn fed to a flat bed recorder. Measured amounts of histamine are added to the tissue bath so that the histamine concentration increases step-wise until the force of the contraction reaches a maximum. The tissue bath is washed out and filled with fresh magnesium free Tyrode solution containing compound under test. The solution is left in contact with the tissue for 8 min. and measured amounts of histamine are added again until a maximum contraction is recorded. The assay is repeated with increasing concentrations of test compound and the dose of histamine giving 50% of maximum contraction is noted. A dose ratio (DR) was calculated by comparing the concentrations of histamine required to produce 50% maximum response in the absence and in the presence of the antagonist. A plot of Log DR-1 against Log D (the concentration of compound under test) is made and the point of intersection with the Log (DR-1) ordinate is taken as the measure of the activity (pA2 value).

The next assay has as its target T2, histamine H2 -receptor (Cavia porcellus, UniProt P47747).
T2 construct: isolated portion of the guinea pig right atrium is secured under tension; from tissue; host or cells: isolated guinea pig right atrium
The assay is described as follows: guinea pig atrium test (histamine H2-antagonist activity in vitro). Format: cell-based. Conditions: isolated guinea pig right atrium, histamine-stimulated rate of beating, 60 min contact, 37° C., Schild plot; read-out: pA2 value (converted). On the procedure:
The histamine H2 -antagonist activity of the compounds of formula (1) can be determined in vitro in the guinea pig atrium test. In this test a spontaneously beating isolated portion of the guinea pig right atrium is secured under tension (300 mg) between an anchorage and a transducer in a 15 ml tissue bath and immersed in McEwens solution with constant aeration at a temperature of 37° C. The output from the transducer is amplified. Output is in turn fed to a flat bed recorder. Measured amounts of histamine are added to the tissue bath so that the histamine concentration increases step-wise until the rate of beating reaches a maximum. The tissue bath is washed out and filled with fresh McEwens solution containing compound under test. The solution is left in contact with the tissue for 60 min. and measured amounts of histamine are added again until a maximum rate is recorded. The assay is repeated with increasing concentrations of test compound and the dose of histamine giving 50% of maximum rate is noted. A dose ratio (DR) was calculated by comparing the concentrations of histamine required to produce 50% maximum response in the absence and in the presence of the antagonist. A plot of Log DR-1 against Log D (the concentration of compound under test) is made and the point of intersection with the Log (DR-1) ordinate is taken as the measure of the activity (pA2 value).

SMILES strings stand for the structures.

T2 sequence (P47747 whole entry): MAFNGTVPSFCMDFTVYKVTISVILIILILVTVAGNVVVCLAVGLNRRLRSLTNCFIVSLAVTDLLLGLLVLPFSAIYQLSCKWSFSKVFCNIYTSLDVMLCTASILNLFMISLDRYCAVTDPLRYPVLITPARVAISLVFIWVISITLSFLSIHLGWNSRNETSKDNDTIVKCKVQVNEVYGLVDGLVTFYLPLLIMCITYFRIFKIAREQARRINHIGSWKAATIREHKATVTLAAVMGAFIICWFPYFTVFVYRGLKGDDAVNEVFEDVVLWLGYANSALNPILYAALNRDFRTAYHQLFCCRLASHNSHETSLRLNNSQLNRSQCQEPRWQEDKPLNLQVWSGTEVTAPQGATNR
T1 sequence (P31389 whole entry): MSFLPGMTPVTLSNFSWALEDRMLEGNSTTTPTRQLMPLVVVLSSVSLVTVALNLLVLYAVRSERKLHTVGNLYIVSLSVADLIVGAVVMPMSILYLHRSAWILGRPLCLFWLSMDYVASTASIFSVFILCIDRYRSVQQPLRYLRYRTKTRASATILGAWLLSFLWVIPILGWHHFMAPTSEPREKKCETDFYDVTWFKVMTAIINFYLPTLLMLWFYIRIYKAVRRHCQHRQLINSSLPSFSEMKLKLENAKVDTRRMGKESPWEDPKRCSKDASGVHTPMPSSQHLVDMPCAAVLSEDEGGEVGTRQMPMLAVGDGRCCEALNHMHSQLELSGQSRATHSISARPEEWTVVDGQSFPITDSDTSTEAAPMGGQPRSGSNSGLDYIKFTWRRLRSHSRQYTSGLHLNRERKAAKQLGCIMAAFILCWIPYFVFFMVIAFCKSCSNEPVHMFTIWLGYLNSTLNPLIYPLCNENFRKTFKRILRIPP

Turning to `CNC(=NCCCCc1ncc(Br)cc1C)NC#N` [Example 1, N-cyano-N'-methyl-N"-[4-(5-bromo-3-methylpyrid-2-yl)-butyl]-guanidine], the figures for the Kb at histamine H1 -receptor and on histamine H2 -receptor were less than 10 nM and more than 10 µM, respectively.
For `Cc1cc(Br)cnc1CCCCN=C(NC#N)NCc1ccccc1` [Example 2, N-cyano-N'-benzyl-N"-[4-(5-bromo-3-methylpyrid-2-yl)-butyl]-guanidine], the Kb on histamine H1 -receptor was less than 10 nM; on histamine H2 -receptor, more than 10 µM.

The values are drawn from patent publication US4640926A, “3,5-Substituted-2-pyridylalkylaminothiadiazoles having histamine H1 -antagonist activity” (Smith Kline & French Laboratories Limited, priority 1982, dated 1987).
